This is an account of results in ChEMBL document CHEMBL5500378, “Discovery of 4-benzylpiperazinequinoline BChE inhibitor that suppresses neuroinflammation for the treatment of Alzheimer's disease” (Eur J Med Chem, 2024).

Series [1] concerns Mus musculus. The series is described as follows: Anti-inflammatory activity in ICR mouse model assessed as reduction in brain IL-1beta level at 10 mg/kg, IG pretreated for 10 days followed by LPS treatment for 4 days by ELISA. The class given is functional, organism-based. The following applies: time 14.0 day. A general note: In an ELISA, binding on a coated surface is turned into a signal by an enzyme label.

The next series has as its system BV-2. The series is described as follows: Anti-inflammatory activity against mouse BV-2 cells assessed as decrease in LPS-induced IL-6 level at 2 to 6 uM preincubated for 1 hr followed by LPS addition and incubated overnight by ELISA. In kind it is functional, cell-based. The following applies: dose 2-6 µM.
Series [2] is described as follows: Oral bioavailability in Sprague-Dawley rat at 10 mg/kg, IG or 10 mg/kg, iv measured for 2880 mins by LC-MS/MS analysis. The class given is ADME, organism-based. The following applies: in vivo.
Series [3] is described as follows: Cmax in brain of ICR mouse at 10 mg/kg, IG measured at 10 to 240 mins by LC-MS/MS analysis. In kind it is ADME, organism-based. The following applies: po, time 10-240 min.
The next series relates to PC-12. Briefly: Neuroprotective activity against H2O2-induced neuronal damage in rat PC12 cells assessed as increase in cell viability pretreated for 1 hr followed by H2O2 addition measured after 24 hrs by MTT assay. The class given is functional, cell-based. The following applies: dose <= 20.0 µM, time 25.0 hrs. For orientation: Formazan colour is commonly taken as a measure of viable cells.

Series [4] concerns Mus musculus. Briefly: Anti-inflammatory activity in ICR mouse model assessed as reduction in brain TNF-alpha level at 10 mg/kg, IG pretreated for 10 days followed by LPS treatment for 4 days by ELISA. In kind it is functional, organism-based. The conditions noted are these: time 14.0 day.
Series [5] in a line: Cmax in Sprague-Dawley rat at 10 mg/kg, IG measured for 2880 mins by LC-MS/MS analysis. The conditions noted are these: in vivo, po. The class given is ADME, organism-based.
The nature of series [6]: Ratio of Cmax in brain to plasma of ICR mouse at 10 mg/kg, IG measured at 10 to 240 mins by LC-MS/MS analysis. In kind it is ADME, organism-based. The following applies: po, time 10-240 min.
A short description of series [7]: Half life in brain of ICR mouse at 10 mg/kg, IG measured at 10 to 240 mins by LC-MS/MS analysis. The class given is ADME, organism-based. The following applies: po, time 10-240 min.
Series [8] is described as follows: Tmax in Sprague-Dawley rat at 10 mg/kg, IG measured for 2880 mins by LC-MS/MS analysis. The class given is ADME, organism-based. The following applies: in vivo, po.
Series [9] is described as follows: AUC (0 to t) in Sprague-Dawley rat at 10 mg/kg, iv measured for 2880 mins by LC-MS/MS analysis. The class given is ADME, organism-based. The conditions noted are these: in vivo.
Series [10] in a line: Toxicity in ICR mouse assessed as abnormal behaviour administered orally. The conditions noted are these: in vivo, po.
For series [11], the system named is Mus musculus. Briefly: Anti-inflammatory activity in ICR mouse model assessed as reduction in serum TNF-alpha level at 10 mg/kg, IG pretreated for 10 days followed by LPS treatment for 4 days by ELISA. The class given is functional, organism-based. The following applies: time 14.0 day.
Series [12] is described as follows: Half life in Sprague-Dawley rat at 10 mg/kg, IG measured for 2880 mins by LC-MS/MS analysis. The conditions noted are these: in vivo, po. In kind it is ADME, organism-based.
Series [13] relates to Mus musculus. The series is described as follows: Anti-inflammatory activity in ICR mouse model assessed as shorter platform latency at 10 mg/kg, IG pretreated for 10 days followed by LPS treatment for 4 days by Moris water maze test. In kind it is functional, organism-based. The following applies: time 14.0 day.
Series [14] is described as follows: Half life in Sprague-Dawley rat at 10 mg/kg, iv measured for 2880 mins by LC-MS/MS analysis. The following applies: in vivo, 48 h. In kind it is ADME, organism-based.
Series [15] is described as follows: Toxicity in ICR mouse assessed as animal death administered orally. The following applies: in vivo, po.
Series [16] in a line: Neurotoxicity against human SH-SY5Y cells by MTT assay. In kind it is toxicity, cell-based.
Series [17] has as its system Antioxidant response element. Briefly: Induction of ARE in human HepG2-ARE-C8 cells incubated for 24 hrs by luciferase based assay. The class given is cell-based. The following applies: HepG2-ARE-C8, 24 h.
The nature of series [18]: AUC (0 to t) in brain of ICR mouse at 10 mg/kg, IG measured at 10 to 240 mins by LC-MS/MS analysis. The class given is ADME, organism-based. The following applies: po, time 10-240 min.
Series [19] relates to Mus musculus. Briefly: Improvement of cognition in ICR mouse model of Amyloid beta(1 to 42)-induced cognitive impairment at 10 mg/kg, IG for 12 days by Moris water maze test. The class given is functional, organism-based. The conditions noted are these: time 12.0 day.

The source made the active and inactive calls.

One may read the bioavailability as dose-corrected exposure relative to a reference, in per cent. A high value points to good availability. The term Cmax denotes the highest concentration seen after dosing. For orientation: Kp means the ratio of the level in a tissue or fluid to that in plasma or blood. Broadly, the half-life is the time needed for the level to fall by half in the phase considered. As a reminder, the Tmax is the time from dosing to the highest level. Broadly, the AUC(0-t) is exposure summed from dosing to a finite time, without extrapolation to infinity. In general, EC50 refers to the concentration at which the effect is half-maximal. Consider `CCCc1ccc(C(=O)Nc2cnc3ccccc3c2N2CCN(Cc3ccccc3)CC2)cc1`, for which the result in the series on Mus musculus [1], with BV-2, in the series on Mus musculus [4], with Mus musculus [11], with Mus musculus [13] and with Mus musculus [19] was Active. The bioavailability in series [2] was found to be 92.3%. Besides, the Cmax worked out at 554 ng/mL in series [3] and 1380 ng/mL in series [5]. In addition, the Activity result with PC-12 is “Dose-Dependent Effect”; in series [10] it was “Non-Toxic”; in [15], “Non-Toxic”; in series [16], “Not Active”. For the same compound, in series [6], the Kp was 2.33. In addition, the half-life was found to be 1.6 h in series [7] and 2.81 h in series [12]. For the same compound, the Tmax in [8] was 1 h. Besides, in series [9], the AUC(0-t) at 48 h is 6070 ng·h/mL. Further, the t1/2 in series [14] amounted to 5.047 h. Moreover, the EC50 in [17] was 23.5 µM. Further, the AUC(0-t) in [18] came out at 38300 ng·h/mL.
